As usually defined, the GI50 is the concentration at which growth is held to half of that of the control. A higher GI50 goes with lower sensitivity of the cells.

The test system of assay [1] is A549/ATCC. The experiment in a line: cells. As to conditions: Homo sapiens, A549, 48 h.
The subject of assay [2] is human H522 lung cancer. The following applies: hollow fiber.

`COC(=O)c1[nH]c2c(O)cc(NC(=O)c3cc4cc(OC)c(OC)c(OC)c4[nH]3)c(CCCl)c2c1C(=O)OC` [Compound 22, Dimethyl 4-(2-chloroethyl)-7-hydroxy-5-(5,6,7-trimethoxyindole-2-carboxamido)indole-2,3-dicarboxylate] came in with a concentration for 50% growth inhibition (GI50) in assay [1] of 135 nM. In addition, in assay [1] (read-out: LC50), the CC50 was more than 50000 nM.
For the compound `O=C(Nc1cc(O)ccc1CCCl)c1cc2cc(NC(=O)c3cc4ccccc4o3)ccc2[nH]1` [Compound 1, 4-(2-Chloroethyl)-3-[5-(5-benzofuran-2-carboxamido)indole-2-carboxamido]phenol], in assay [2], the “IP+SC score” value is recorded as 18 and the cell kill entry is given as “significant cells kill was observed”. For the same compound, the IP score in assay [2] (intraperitoneal fibers) was determined as 8. Further, the SC score in assay [2] (subcutaneous fibers) is 10.
